Measured values from PMC5218480 (PLoS ONE, 2017).

System: MV-4-11 cells
Test: Gene expression microarray analysis (Affymetrix PrimeView) and GSEA
Assay type: cell-based, human
Parameters: RFU PODN (11730768_x_at) / Fold change /veh PODN (11730768_x_at) / RFU LINC00158 (11744669_a_at) / Fold change /veh LINC00158 (11744669_a_at) / RFU DUSP10 (11751237_a_at) / Fold change /veh DUSP10 (11751237_a_at) / RFU ID3 (11757404_x_at) / Fold change /veh ID3 (11757404_x_at) / RFU PLEKHG5 (11737974_s_at) / Fold change /veh PLEKHG5 (11737974_s_at) / RFU LRRC4B (11730491_at) / Fold change /veh LRRC4B (11730491_at) / RFU GIMAP4 (11747438_a_at) / Fold change /veh GIMAP4 (11747438_a_at) / RFU KRT8 (11758183_x_at) / Fold change /veh KRT8 (11758183_x_at) / RFU CNN1 (11734310_a_at) / Fold change /veh CNN1 (11734310_a_at) / RFU VPS37D (11726825_at) / Fold change /veh VPS37D (11726825_at) / RFU C10orf10 (11716522_x_at) / Fold change /veh C10orf10 (11716522_x_at) / RFU KIR2DL2 /// KIR2DL4 /// KIR2DL5A /// KIR2DL5B /// KIR2DS1 /// KIR2DS2 /// KIR2DS3 /// KIR2DS4 /// KIR3DL3 /// KIR3DL3 /// KIR3DS1 (11738374_at) / Fold change /veh KIR2DL2 /// KIR2DL4 /// KIR2DL5A /// KIR2DL5B /// KIR2DS1 /// KIR2DS2 /// KIR2DS3 /// KIR2DS4 /// KIR3DL3 /// KIR3DL3 /// KIR3DS1 (11738374_at) / RFU C1QL1 (11718748_at) / Fold change /veh C1QL1 (11718748_at) / RFU TMPRSS4 (11747572_a_at) / Fold change /veh TMPRSS4 (11747572_a_at) / RFU HAMP (11756126_x_at) / Fold change /veh HAMP (11756126_x_at) / RFU RNFT2 (11725882_a_at) / Fold change /veh RNFT2 (11725882_a_at) / RFU NR4A2 (11747474_a_at) / Fold change /veh NR4A2 (11747474_a_at) / RFU ABCC12 (11746883_a_at) / Fold change /veh ABCC12 (11746883_a_at) / RFU TMEM136 (11760407_x_at) / Fold change /veh TMEM136 (11760407_x_at) / RFU CLDN22 /// WWC2 (11732394_at) / Fold change /veh CLDN22 /// WWC2 (11732394_at) / RFU HLA-DPB1 (11760878_x_at) / Fold change /veh HLA-DPB1 (11760878_x_at) / RFU SPINT1 (11716480_a_at) / Fold change /veh SPINT1 (11716480_a_at) / RFU GAP43 (11754022_s_at) / Fold change /veh GAP43 (11754022_s_at) / RFU A4GNT (11735810_at) / Fold change /veh A4GNT (11735810_at) / RFU PRB3 (11715151_x_at) / Fold change /veh PRB3 (11715151_x_at) / RFU TUBB4B (11761932_at) / Fold change /veh TUBB4B (11761932_at) / RFU CAPN14 (11732068_a_at) / Fold change /veh CAPN14 (11732068_a_at) / RFU TMCC2 (11721928_a_at) / Fold change /veh TMCC2 (11721928_a_at) / RFU IRGQ (11745062_a_at) / Fold change /veh IRGQ (11745062_a_at) / RFU FAM174B (11720279_a_at) / Fold change /veh FAM174B (11720279_a_at) / RFU TMPRSS4 (11748680_a_at) / Fold change /veh TMPRSS4 (11748680_a_at) / RFU FAM212B (11763350_a_at) / Fold change /veh FAM212B (11763350_a_at) / RFU PLEKHG5 (11743358_a_at) / Fold change /veh PLEKHG5 (11743358_a_at) / RFU ZSCAN30 (11745921_a_at) / Fold change /veh ZSCAN30 (11745921_a_at) / RFU CMKLR1 (11741424_a_at) / Fold change /veh CMKLR1 (11741424_a_at) / RFU LOC101060620 /// MAPK8IP1 (11723275_at) / Fold change /veh LOC101060620 /// MAPK8IP1 (11723275_at) / RFU SPTSSB (11747773_x_at) / Fold change /veh SPTSSB (11747773_x_at) / RFU PRSS12 (11739890_at) / Fold change /veh PRSS12 (11739890_at) / RFU BIN1 (11741810_x_at) / Fold change /veh BIN1 (11741810_x_at) / RFU WNT11 (11732464_a_at) / Fold change /veh WNT11 (11732464_a_at) / RFU C10orf10 (11716521_a_at) / Fold change /veh C10orf10 (11716521_a_at) / RFU C5orf56 (11738089_at) / Fold change /veh C5orf56 (11738089_at) / RFU CYB561 (11721691_x_at) / Fold change /veh CYB561 (11721691_x_at) / RFU ANKRD19P (11752326_a_at) / Fold change /veh ANKRD19P (11752326_a_at) / RFU OR2T12 /// OR2T33 /// OR2T8 (11738714_s_at) / Fold change /veh OR2T12 /// OR2T33 /// OR2T8 (11738714_s_at) / RFU VCAN (11748164_a_at) / Fold change /veh VCAN (11748164_a_at) / RFU JSRP1 (11732532_at) / Fold change /veh JSRP1 (11732532_at) / RFU KRTAP10-11 (11738290_x_at) / Fold change /veh KRTAP10-11 (11738290_x_at) / RFU MYO3A (11730013_a_at) / Fold change /veh MYO3A (11730013_a_at) / RFU EBF3 (11725865_a_at) / Fold change /veh EBF3 (11725865_a_at) / RFU CAMK2N1 (11719241_x_at) / Fold change /veh CAMK2N1 (11719241_x_at) / RFU C5orf56 (11738088_a_at) / Fold change /veh C5orf56 (11738088_a_at) / RFU OLFML3 (11715873_a_at) / Fold change /veh OLFML3 (11715873_a_at) / RFU LOC100653217 /// NTM (11731650_a_at) / Fold change /veh LOC100653217 /// NTM (11731650_a_at) / RFU MAPK11 (11762145_a_at) / Fold change /veh MAPK11 (11762145_a_at) / RFU FIZ1 (11724087_x_at) / Fold change /veh FIZ1 (11724087_x_at) / RFU OASL (11726364_x_at) / Fold change /veh OASL (11726364_x_at) / RFU SOX15 (11748057_x_at) / Fold change /veh SOX15 (11748057_x_at) / RFU CD79A (11719716_a_at) / Fold change /veh CD79A (11719716_a_at) / RFU HIST1H1D (11736915_at) / Fold change /veh HIST1H1D (11736915_at) / RFU CASKIN2 (11723855_a_at) / Fold change /veh CASKIN2 (11723855_a_at) / RFU LOC730098 (11760151_x_at) / Fold change /veh LOC730098 (11760151_x_at) / RFU OR4N2 (11742367_at) / Fold change /veh OR4N2 (11742367_at) / RFU PRRT2 (11749266_a_at) / Fold change /veh PRRT2 (11749266_a_at) / RFU SNX32 (11753110_a_at) / Fold change /veh SNX32 (11753110_a_at) / RFU CDHR5 (11726645_a_at) / Fold change /veh CDHR5 (11726645_a_at) / RFU RCAN1 (11760418_a_at) / Fold change /veh RCAN1 (11760418_a_at) / RFU FAM167A (11723789_a_at) / Fold change /veh FAM167A (11723789_a_at) / RFU FAM26E (11764081_at) / Fold change /veh FAM26E (11764081_at) / RFU ISYNA1 (11749810_s_at) / Fold change /veh ISYNA1 (11749810_s_at) / RFU ACY1 (11761880_at) / Fold change /veh ACY1 (11761880_at) / RFU 11764098_at / Fold change /veh 11764098_at / RFU SAMD14 (11745864_x_at) / Fold change /veh SAMD14 (11745864_x_at) / RFU NPB (11741838_a_at) / Fold change /veh NPB (11741838_a_at) / RFU TMPRSS6 (11731388_a_at) / Fold change /veh TMPRSS6 (11731388_a_at) / RFU KRTAP10-2 (11738614_at) / Fold change /veh KRTAP10-2 (11738614_at) / RFU ARHGAP8 /// PRR5-ARHGAP8 (11727945_x_at) / Fold change /veh ARHGAP8 /// PRR5-ARHGAP8 (11727945_x_at) / RFU KRTAP5-7 /// NADSYN1 (11734609_at) / Fold change /veh KRTAP5-7 /// NADSYN1 (11734609_at) / RFU RASL12 (11751679_a_at) / Fold change /veh RASL12 (11751679_a_at) / RFU CDKN2B (11736163_a_at) / Fold change /veh CDKN2B (11736163_a_at) / RFU PRF1 (11729649_at) / Fold change /veh PRF1 (11729649_at) / RFU, ZNF638 /// ZNF638-IT1 / Fold change vs veh, ZNF638 /// ZNF638-IT1 / RFU, PANK3 / Fold change vs veh, PANK3 / RFU, SH3YL1 / Fold change vs veh, SH3YL1 / RFU, ZEB2 / Fold change vs veh, ZEB2 / RFU, NRIP1 / Fold change vs veh, NRIP1 / RFU, PTTG1IP / Fold change vs veh, PTTG1IP / RFU, CAPN2 / Fold change vs veh, CAPN2 / RFU, MED14 / Fold change vs veh, MED14 / RFU, SNORA58 / Fold change vs veh, SNORA58 / RFU, C1orf63 / Fold change vs veh, C1orf63 / RFU, LRRFIP1 / Fold change vs veh, LRRFIP1 / RFU, NDUFAF7 / Fold change vs veh, NDUFAF7 / RFU, SLC12A2 / Fold change vs veh, SLC12A2 / RFU, IBTK / Fold change vs veh, IBTK / RFU, ESF1 / Fold change vs veh, ESF1 / Fold change vs veh, TMEM50B / RFU, TAOK1 / Fold change vs veh, TAOK1 / RFU, ACBD3 / Fold change vs veh, ACBD3 / RFU, TMA16 / Fold change vs veh, TMA16 / RFU, RWDD3 / Fold change vs veh, RWDD3 / RFU, BCAT1 / Fold change vs veh, BCAT1 / RFU, EDEM3 / Fold change vs veh, EDEM3 / RFU, TMEM33 / Fold change vs veh, TMEM33 / RFU, WDR75 / Fold change vs veh, WDR75 / RFU, AHCTF1 / Fold change vs veh, AHCTF1 / RFU, TFRC / Fold change vs veh, TFRC / RFU, ZDHHC17 / Fold change vs veh, ZDHHC17 / RFU, NOM1 / Fold change vs veh, NOM1 / RFU, ARL8B / Fold change vs veh, ARL8B / RFU, ZBTB11 / Fold change vs veh, ZBTB11 / RFU, TAMM41 / Fold change vs veh, TAMM41 / RFU, KIAA1704 /// LOC100996395 / Fold change vs veh, KIAA1704 /// LOC100996395 / RFU, ING1 / Fold change vs veh, ING1 / RFU, TRMT61B / Fold change vs veh, TRMT61B / RFU, FUBP3 / Fold change vs veh, FUBP3 / RFU, TP53 / Fold change vs veh, TP53 / RFU, TNKS2 / Fold change vs veh, TNKS2 / RFU, ZFP14 / Fold change vs veh, ZFP14 / RFU, ACTR2 / Fold change vs veh, ACTR2 / RFU, PPP3R1 / Fold change vs veh, PPP3R1 / RFU, PIK3R1 / Fold change vs veh, PIK3R1 / RFU, HNRNPA1 / Fold change vs veh, HNRNPA1 / RFU, RNF170 / Fold change vs veh, RNF170 / RFU, ZNF28 / Fold change vs veh, ZNF28 / RFU, RNGTT / Fold change vs veh, RNGTT / RFU, OGT / Fold change vs veh, OGT / RFU, BRD1 / Fold change vs veh, BRD1 / RFU, MARS / Fold change vs veh, MARS / RFU, ZNF655 / Fold change vs veh, ZNF655 / RFU, FAHD1 / Fold change vs veh, FAHD1 / RFU, BDP1 / Fold change vs veh, BDP1 / RFU, LRRCC1 / Fold change vs veh, LRRCC1 / RFU, ARID1A / Fold change vs veh, ARID1A / RFU, ZNF146 / Fold change vs veh, ZNF146 / RFU, ZNF330 / Fold change vs veh, ZNF330 / RFU, GPN3 / Fold change vs veh, GPN3 / RFU, C9orf123 / Fold change vs veh, C9orf123 / RFU, N4BP2L2 / Fold change vs veh, N4BP2L2 / RFU, ARFIP1 / Fold change vs veh, ARFIP1 / RFU, FAM179B / Fold change vs veh, FAM179B / RFU, BCL10 / Fold change vs veh, BCL10 / RFU, UHRF1BP1L / Fold change vs veh, UHRF1BP1L / RFU, BET1 / Fold change vs veh, BET1 / RFU, CNOT2 / Fold change vs veh, CNOT2 / RFU, ZNF268 / Fold change vs veh, ZNF268 / Fold change vs veh, ZNF507 / RFU, DGCR2 / Fold change vs veh, DGCR2 / RFU, WDSUB1 / Fold change vs veh, WDSUB1 / Fold change vs veh, HSP90B1 /// MIR3652 / RFU, ADSS / Fold change vs veh, ADSS / RFU, GK / Fold change vs veh, GK / RFU, ZNF148 / Fold change vs veh, ZNF148 / RFU, TAF9 / Fold change vs veh, TAF9 / RFU, SLC1A5 / Fold change vs veh, SLC1A5 / RFU, SLMO2 / Fold change vs veh, SLMO2 / RFU, ABCC4 / Fold change vs veh, ABCC4 / RFU, LOC101060439 /// RAP1B / Fold change vs veh, LOC101060439 /// RAP1B / RFU, RFX7 / Fold change vs veh, RFX7 / RFU, GTPBP10 / Fold change vs veh, GTPBP10 / RFU, CNEP1R1 / Fold change vs veh, CNEP1R1 / RFU, BIVM-ERCC5 /// ERCC5 / Fold change vs veh, BIVM-ERCC5 /// ERCC5 / RFU, ILF3 / Fold change vs veh, ILF3 / RFU 11762660_at / Fold change /veh 11762660_at / RFU VCAN (11757783_s_at) / Fold change /veh VCAN (11757783_s_at) / RFU DDX43 (11728927_at) / Fold change /veh DDX43 (11728927_at) / RFU KRT8 (11758188_x_at) / Fold change /veh KRT8 (11758188_x_at) / RFU NKD1 (11759106_at) / Fold change /veh NKD1 (11759106_at) / RFU SRD5A1 (11742802_a_at) / Fold change /veh SRD5A1 (11742802_a_at) / RFU TPSAB1 /// TPSB2 (11721975_s_at) / Fold change /veh TPSAB1 /// TPSB2 (11721975_s_at) / RFU GSTM3 (11746129_a_at) / Fold change /veh GSTM3 (11746129_a_at) / RFU IL23R (11737362_x_at) / Fold change /veh IL23R (11737362_x_at) / RFU TMEM51 (11727254_a_at) / Fold change /veh TMEM51 (11727254_a_at) / RFU PIWIL2 (11732686_x_at) / Fold change /veh PIWIL2 (11732686_x_at) / RFU ORM1 (11744905_x_at) / Fold change /veh ORM1 (11744905_x_at) / RFU CCDC152 (11743942_at) / Fold change /veh CCDC152 (11743942_at) / RFU ECM1 (11717891_a_at) / Fold change /veh ECM1 (11717891_a_at) / RFU IL23R (11748794_a_at) / Fold change /veh IL23R (11748794_a_at) / RFU TNFAIP8L3 (11732012_x_at) / Fold change /veh TNFAIP8L3 (11732012_x_at) / RFU MBOAT4 (11741988_at) / Fold change /veh MBOAT4 (11741988_at) / RFU 11764193_at / Fold change /veh 11764193_at / RFU TMEM53 (11763286_at) / Fold change /veh TMEM53 (11763286_at) / RFU MAGEB2 (11727129_at) / Fold change /veh MAGEB2 (11727129_at) / RFU TMEM200A (11744735_a_at) / Fold change /veh TMEM200A (11744735_a_at) / RFU CCDC152 (11751479_a_at) / Fold change /veh CCDC152 (11751479_a_at) / RFU FAM211A (11726209_a_at) / Fold change /veh FAM211A (11726209_a_at) / RFU RGS16 (11746705_a_at) / Fold change /veh RGS16 (11746705_a_at) / RFU VCAN (11755009_s_at) / Fold change /veh VCAN (11755009_s_at) / RFU RHOB (11743442_s_at) / Fold change /veh RHOB (11743442_s_at) / RFU RGS16 (11720943_a_at) / Fold change /veh RGS16 (11720943_a_at) / RFU RGS16 (11720944_at) / Fold change /veh RGS16 (11720944_at) / RFU, VPS4B / Fold change vs veh, VPS4B / RFU, CREB1 / Fold change vs veh, CREB1 / RFU, DNAJC13 / Fold change vs veh, DNAJC13 / RFU, GNAQ / Fold change vs veh, GNAQ / RFU, CDK5R1 / Fold change vs veh, CDK5R1 / RFU, ZRANB3 / Fold change vs veh, ZRANB3 / RFU, CUL4A / Fold change vs veh, CUL4A / RFU, CCNY / Fold change vs veh, CCNY / RFU, UFL1 / Fold change vs veh, UFL1 / RFU, COG3 / Fold change vs veh, COG3 / RFU, DIAPH2 / Fold change vs veh, DIAPH2 / RFU, SKA2 / Fold change vs veh, SKA2 / RFU, AFF3 / Fold change vs veh, AFF3 / RFU, LMF1 / Fold change vs veh, LMF1 / RFU, IPO11 / Fold change vs veh, IPO11 / RFU, DFFB / Fold change vs veh, DFFB / RFU, FOXP1 / Fold change vs veh, FOXP1 / RFU, CARD8 / Fold change vs veh, CARD8 / RFU, STRN3 / Fold change vs veh, STRN3 / RFU, ADK / Fold change vs veh, ADK / RFU, RASSF2 / Fold change vs veh, RASSF2 / RFU, WIPF1 / Fold change vs veh, WIPF1 / RFU, LARP1B / Fold change vs veh, LARP1B / RFU, RASA1 / Fold change vs veh, RASA1 / RFU, RB1 / Fold change vs veh, RB1 / RFU, PPFIA1 / Fold change vs veh, PPFIA1 / RFU, MAT2A / Fold change vs veh, MAT2A / RFU, CCT5 / Fold change vs veh, CCT5 / RFU, WDR92 / Fold change vs veh, WDR92 / RFU, CUX1 / Fold change vs veh, CUX1 / RFU, TTC7A / Fold change vs veh, TTC7A / RFU, TMEM135 / Fold change vs veh, TMEM135 / RFU, DEPTOR / Fold change vs veh, DEPTOR / RFU, CPM / Fold change vs veh, CPM / RFU, DNAJB6 / Fold change vs veh, DNAJB6 / RFU, CACNA2D3 / Fold change vs veh, CACNA2D3 / RFU, DTX4 / Fold change vs veh, DTX4 / RFU, TFCP2 / Fold change vs veh, TFCP2 / RFU, GMCL1 /// GMCL1P1 / Fold change vs veh, GMCL1 /// GMCL1P1 / RFU, AEBP2 / Fold change vs veh, AEBP2 / RFU, SNHG1 /// SNORD22 /// SNORD25 /// SNORD26 /// SNORD27 /// SNORD28 /// SNORD29 /// SNORD31 / Fold change vs veh, SNHG1 /// SNORD22 /// SNORD25 /// SNORD26 /// SNORD27 /// SNORD28 /// SNORD29 /// SNORD31 / Fold change (Aza/veh), C12orf56 (ProbeSet 11735607_a_at) / Fold change (ACY-1035/veh), C12orf56 (ProbeSet 11735607_a_at) / Fold change (Aza/veh), FGFR1OP (ProbeSet 11751329_s_at) / Fold change (ACY-1035/veh), FGFR1OP (ProbeSet 11751329_s_at) / Fold change (Aza/veh), VPS36 (ProbeSet 11739960_a_at) / Fold change (ACY-1035/veh), VPS36 (ProbeSet 11739960_a_at) / RFU SYPL1 (11715823_x_at) / Fold change /veh SYPL1 (11715823_x_at) / RFU IGFBP7 (11715501_s_at) / Fold change /veh IGFBP7 (11715501_s_at) / RFU REEP3 (11722064_at) / Fold change /veh REEP3 (11722064_at) / RFU IGLL1 (11728026_x_at) / Fold change /veh IGLL1 (11728026_x_at): dose or concentration left out as unconfirmed
Details: MV-4-11 cells, 48 hours

For `Nc1ncn([C@@H]2O[C@H](CO)[C@@H](O)[C@H]2O)c(=O)n1` [azacitidine], the “Fold change /veh OASL (11726364_x_at)” value was 0.86.
